Assays:
[1] = Stabilisation of polyethylene in permanent contact with water (extraction test, oxidation induction time); settings: 0.05% compound (302) with 0.10% Irganox 1010, 0.05% Irgafos, 0.10% calcium stearate in PE-HD; deionised water, 50 days at 80° C.
Description: Stabilisation of polyethylene which is in permanent contact with water.
0.10% by weight of calcium stearate and a stabilizer mixture comprising 0.10% by weight of Irganox®1010 (pentaerythritol tetrakis[3-(3,5-di-tert-butyl-4-hydroxyphenyl)propionate]), 0.05% by weight of Irgafos®68 (tris(2,4-di-tert-butylphenyl)phosphite) and 0.05% by weight of compound (302) (Table 3) is added dry to a polyethylene polymer (Hostalene® CRP 100; PE-HD) taken direct from a reactor and are incorporated therein in a Pappenmaier mixer (type 20) within 2 minutes.
In an extruder, of Schwabenthan, the stabilized polyethylene is homogenised and processed to granulate. For the extraction tests in water, 200 mm by 150 mm by 2 mm test plates are pressed from the granulate of the individual formulations using a table press. To ease the demoulding of the test plates, the pressing process is carried out between two aluminium foils. […]
The test plates are subjected to the above test conditions for 50 days at 80° C. Upon termination of the extraction test, the residual stabilizer content and the oxidation induction time of the test plates are determined.
The residual content of sterically hindered phenol, Irganox®1010, is determined using an internal standard in an HPLC appliance of the Spectra Physics SP 8800 type, equipped with autosampler and UV/VIS detector of the Spectra 200 type. […]

melting point | stability of polyolefins in permanent contact with extracting media [1] | SMILES
116 to 119 °C | – | CC(C)(C)c1cc2c(c(C(C)(C)C)c1)OC(=O)C2c1ccccc1 (centres unmarked) [(101), 5,7-di-tert-butyl-3-phenyl-3H-benzofuran-2-one]
172 to 174 °C | – | COc1ccc(-c2c(N)oc3c(C(C)(C)C)cc(C(C)(C)C)cc23)cc1OC [(303), 2-amino-5,7-di-tert-butyl-3-(3,4-dimethoxyphenyl)-benzofurane]
174 to 178 °C | – | CC(C)(C)c1cc(C(C)(C)C)c2oc(N)c(-c3ccccc3)c2c1 [Compound (301), 2-amino-3-phenyl-5,7-di-tert-butyl-benzofurane]
128 to 130 °C | improved | Cc1ccc(-c2c(N)oc3c(C(C)(C)C)cc(C(C)(C)C)cc23)cc1C [Compound (302), 2-amino-5,7-di-tert-butyl-3-(3,4-dimethylphenyl)-benzofurane]
